Literature values as cited in patent publication US11419872B2, “Phosphoinositide 3-kinase and Src inhibitors for treatment of pancreatic cancer” (Innoplexus AG, priority 2020, dated 2022).

Key:
[1] = for adverse events reported: literature reports
[2] = test system: primary tumours and metastasis; conditions: pre-clinical animal models
[3] = test system: colon carcinoma cell line CT26
[4] = test system: breast cancer cell line MDA-MB-231
[5] = test system: gastric cancer cell line MKN-1
[6] = in vivo
[7] = test system: human embryonic kidney cell line HEK293
[8] = test system: pancreatic cancer cell line PANC-1; conditions: PANC-1 (Suzuki et al. 2016)
CYP3A4 = CYP3A4 (Homo sapiens, UniProt P08684)
Chain of CYP3A4 (P08684 whole entry): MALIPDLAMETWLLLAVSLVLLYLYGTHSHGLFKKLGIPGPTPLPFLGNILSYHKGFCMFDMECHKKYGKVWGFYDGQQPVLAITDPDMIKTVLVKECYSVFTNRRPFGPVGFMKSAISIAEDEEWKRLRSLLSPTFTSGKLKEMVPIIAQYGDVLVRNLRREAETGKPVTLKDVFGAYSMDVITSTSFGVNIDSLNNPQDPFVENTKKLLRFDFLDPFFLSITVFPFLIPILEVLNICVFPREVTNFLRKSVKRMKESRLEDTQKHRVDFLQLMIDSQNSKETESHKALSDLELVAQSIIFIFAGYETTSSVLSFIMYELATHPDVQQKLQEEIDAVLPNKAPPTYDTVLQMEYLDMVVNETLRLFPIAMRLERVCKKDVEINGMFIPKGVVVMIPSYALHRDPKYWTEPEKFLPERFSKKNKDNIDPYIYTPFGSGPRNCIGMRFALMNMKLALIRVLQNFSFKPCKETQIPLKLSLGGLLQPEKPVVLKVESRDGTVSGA

Cc1c(O)c(=O)ccn1C [deferiprone]
adverse events reported [1]: joint pain, stiffness or swelling

O=C(Cc1ccc(-c2ccc(OCCN3CCOCC3)cc2)cn1)NCc1ccccc1 [KX2-391, N-benzyl-2-[5-[4-(2-morpholin-4-ylethoxy)phenyl]pyridin-2-yl] acetamide]
growth of primary tumours and metastasis [2]: inhibits the growth of both primary tumours and metastasis

COc1cc(Nc2ncc(F)c(Nc3ccc4c(n3)N(COP(=O)(O)O)C(=O)C(C)(C)O4)n2)cc(OC)c1OC [fostamatinib]
adverse events reported [1]: white blood cell disorder, hematological and hepatobiliary disorders

COc1c(OCCCN2CCOCC2)ccc2c1N=C(NC(=O)c1cnc(N)nc1)N1CCN=C21 [copanlisib, amino-N-[7-methoxy-8-(3-morpholin-4-ylpropoxy)-2,3-dihydro-1 H-imidazo [1,2-c]quinazolin-5-ylidene] pyrimidine-5-carboxamide]
adverse events reported [1]: cardiac disorders, glucose metabolism disorders or neurological disorders

O=C1CCc2ccc(OCCCCN3CCN(c4cccc(Cl)c4Cl)CC3)cc2N1 [aripiprazole, 7-[4-[4-(2,3-dichlorophenyl)piperazin-1-yl]butoxy]-3,4-dihydro-1Hquinolin-2-one]
cell viability (glioma cell line LN428): reduced the viability
cell viability [3]: reduced the viability
cell viability [4]: reduced the viability
cell viability [5]: reduced the viability
cell viability (glioma cell line U251): reduced the viability
elimination half-life [6]: approximately 75 hours
Log P: 4.55
cell viability [7]: reduced the viability
cell death and number of viable cells [8]: induced cell death and accordingly decreased the number of viable cells

C[C@H](Nc1ncnc2[nH]cnc12)c1cc2cccc(Cl)c2c(=O)n1-c1ccccc1 [duvelisib, 8-Chloro-2-phenyl-3-[(1S)-1-(3H-purin-6-ylamino)ethyl]-1(2H)-isoquinolinone]
adverse events reported [1]: diarrhea or colitis, cutaneous reactions, infections and pneumonitis
safety profile ([1]; patients with advanced hematologic malignancies): manageable safety profile
primary metabolising enzyme (CYP3A4): primarily metabolized by CYP3A4

CC[C@H](Nc1ncnc2[nH]cnc12)c1nc2cccc(F)c2c(=O)n1-c1ccccc1 [Idealisib, 5-fluoro-3-phenyl-2-[(1S)-1-(7H-purin-6-ylamino)propyl] quinazolin-4-one]
adverse events reported [1]: pneumonitis, hematological disorder, diarrhea and colitis
